“Also recorded” adds a separate entry of the source.
Tests used:
[1] = test system: gastric mucosa; test: Assessment of gastric lesions in IC/BPS mice; format: in vivo, male C57BL/6 SPF mice; settings: 3 h after oral dose, compound of Formula I 77 mg kg^-1 / ketoprofen 50 mg kg^-1 (equimolar)
Procedure: Briefly, mice from distinct experimental groups were euthanized by cervical dislocation under isoflurane anesthesia, and the stomach was excised, opened along the smaller curvature, rinsed gently with saline and then photographed with a digital camera (Samsung Galaxy S20, Campinas/SP, Brazil). The hemorrhagic gastric lesion area was measured blindly (mm^2) using computerized planimetry software (ImageJ, Maryland, USA).

[2] = test system: periodontitis; settings: compared with ketoprofen (parent drug); cited from earlier work
[3] = test system: cyclophosphamide (CYP)-induced interstitial cystitis; test: Mechanical allodynia (electronic von Frey) in CYP-induced cystitis mice; format: in vivo, male C57BL/6 SPF mice; settings: for reversal of abdominal mechanical allodynia (withdrawal threshold, AUC 21 to 24 h after CYP): 21 h after CYP
Procedure: Experiments were conducted with male C57BL/6 SPF mice (6-10 weeks of age) obtained from the animal care facilities at the Faculty of Medicine, University of Sao Paulo, Brazil. Mice were randomly separated into different treatment groups (n=5 to 7 per group). Groups of five or fewer mice were kept in Perspex cages under standard controlled conditions (22° C.; 12/12 h light/dark cycle) with free access to food (Nuvilab CR-1, Quimtia S/A, Brazil) and filtered tap water. The study was performed in agreement with the guidelines from the Brazilian Council for Control of Animal Experimentation (CONCEA) guidelines, consistent with the Animal Welfare Act. All the experimental protocols were approved by the local ethics committee (CEUA—ICB; protocol n ° 2055050819). According to the internal laboratory rules, euthanasia was performed if severe distress related to the test agents developed during the experiment.
Cystitis was induced by a single i.p. injection of cyclophosphamide CYP (300 mg kg^−1; Oliveira et al., 2018), while the control group received an i.p. injection of saline (10 ml kg^−1). […] The drugs were dissolved in 0.5% CMC at a concentration of 10 ml/kg^−1.
The mice were individually placed in a clear Perspex testing chamber (11 cm×9.5 cm×18 cm) on an elevated wire grid platform (0.5 cm2 grid) for an adequate acclimatization (˜1 h). Mechanical sensitivity assessment was performed with the aid of an electronic von Frey apparatus (Insight Inc., Ribeiräo Preto, SP, Brazil) with groups of 5-7 mice each, as described previously (Costa et al., 2020). Force-generating pressure was applied to the lower abdomen in the vicinity of the bladder (pelvic region between the urethra and the anus) with a pressure transducer connected to a digital force detector (Insight Ltd, Ribeiräo Preto/SP, Brazil). Retraction of the abdomen (mechanical allodynia) from the probe was considered as a positive response to the stimuli and were recorded in grams (g). […] All mechanical sensitivity testing was performed in a blinded manner. Response threshold data were analyzed via analysis of variance (ANOVA) followed by Tukey's post hoc test. All mice were euthanized with an overdose of isoflurane followed by cervical dislocation.

[4] = test system: bladder strips; test: Bladder functional assay in vitro (bladder strips from treated CYP-cystitis mice); format: in vivo, male C57BL/6 SPF mice; settings: for reduced contractile response of CYP bladder strips to KCl (80 mM): improvement: bladders taken 24 h after CYP
Procedure: The drugs were dissolved in 0.5% CMC at a concentration of 10 ml/kg^−1.
After 24 h, mice with CYP-induced cystitis were euthanized and the bladders were immediately transferred into a petri-dish. […] The bladders were divided into two longitudinal strips and mounted in an isolated organ bath system (Panlab Harvard, Massachussetts, USA) containing Krebs Henseleit solution at 37° C. (pH 7.4, O2/CO2 […] v/v) under a resting tension of 5 mN. Tissues were allowed to stabilize for 1 h, and during this period the bathing solution was replaced every 15 min. Isometric force was recorded using a PowerLab 8/30 Data Acquisition System (Software Chart, version 6.0, ADInstrument, Milford, MA, USA).

[5] = in vivo; cited from earlier work
[6] = test system: surgical incision pain model; settings: mice; cited from earlier work

CC(C(=O)Oc1ccc(C(N)=S)cc1)c1ccc(C(=O)c2ccccc2)cc1 (centres unmarked) [compound of Formula I, 4-thiocarbamoylphenyl 2-(4-oxophenyl)-phenyl propanoate]
hemorrhagic gastric lesions (gastric mucosal hemorrhagic injury) [1]: did not; also recorded: normal gastric mucosa | potency and effectiveness in periodontitis versus parent drug [2]: more potent and effective | reversal of abdominal mechanical allodynia (withdrawal threshold, AUC 21 to 24 h after CYP) ([3]; equimolar dose compound of Formula I 15 mg kg^-1 / ketoprofen 10 mg kg^-1, p.o., vs CYP + CMC 0.5%): significant dose-dependent differences | reversal of abdominal mechanical allodynia (withdrawal threshold, AUC 21 to 24 h after CYP) ([3]; equimolar dose compound of Formula I 46 mg kg^-1 / ketoprofen 30 mg kg^-1, p.o., vs CYP + CMC 0.5%): significant dose-dependent differences | reversal of abdominal mechanical allodynia (withdrawal threshold, AUC 21 to 24 h after CYP) ([3]; equimolar dose compound of Formula I 77 mg kg^-1 / ketoprofen 50 mg kg^-1, p.o., vs CYP + CMC 0.5%): significant dose-dependent differences | analgesic effect as compared to equimolar ketoprofen (mechanical allodynia AUC) ([3]; highest equimolar dose, 77 mg kg^-1 p.o. vs ketoprofen 50 mg kg^-1, P<0.001): enhanced analgesic effects | anti-hyperalgesic effect on decreased abdominal withdrawal threshold (mechanical allodynia, AUC 21 to 24 h after CYP) ([3]; lowest equimolar dose (compound of Formula I 4.6 mg kg^-1 / ketoprofen 3 mg kg^-1), p.o., 21 h after CYP 300 mg kg^-1 i.p., vs CYP + CMC 0.5%): no an anti-hyperalgesic effect | potency compared with ketoprofen (abdominal hyperalgesic state and bladder contractile response, CYP-induced IC/BPS model) ([3]; orally administered as a single dose): greater than that of ketoprofen | reduced contractile response of CYP bladder strips to KCl (80 mM): improvement ([4]; equimolar dose compound of Formula I 15 mg kg^-1 / ketoprofen 10 mg kg^-1 p.o., vs CYP control): significantly and dose-dependently increased | reduced contractile response of CYP bladder strips to KCl (80 mM): improvement ([4]; equimolar dose compound of Formula I 46 mg kg^-1 / ketoprofen 30 mg kg^-1 p.o., vs CYP control): significantly and dose-dependently increased | reduced maximal (Emax) contractile response elicited by carbachol (CCh) in bladder strips of IC/BPS mice: improvement ([4]; high doses (compound of Formula I 77 mg kg^-1 / ketoprofen 50 mg kg^-1 p.o.)): significantly increased | reduced contractile response of CYP bladder strips to KCl (80 mM): improvement ([4]; high doses: compound of Formula I 77 mg kg^-1 / ketoprofen 50 mg kg^-1 p.o.): neither compound of Formula I (77 mg kg^−1) nor ketoprofen (50 mg kg^−1) significantly improved | GI safety compared to ketoprofen [5]: increased GI safety | efficacy over ketoprofen in surgical incision pain model [6]: increased efficacy
